Measurements as given in ChEMBL document CHEMBL5346873, “Strategic modification of low-activity natural antimicrobial peptides confers antibacterial potential in vitro and in vivo” (Eur J Med Chem, 2023).
In brackets after ≈: the same amount, converted by molar mass.

What was measured:
[1] = test system: Staphylococcus haemolyticus; assay: Antibacterial activity against Staphylococcus haemolyticus incubated for 16 to 20 hrs; type: functional; details: time 16-20 hrs
Escherichia coli [2] = assay: Antibacterial activity against Escherichia coli incubated for 16 to 20 hrs; type: functional; details: time 16-20 hrs
Vibrio harveyi [3] = assay: Antibacterial activity against Vibrio harveyi incubated for 16 to 20 hrs; type: functional; details: time 16-20 hrs
Aeromonas hydrophila [4] = assay: Antibacterial activity against Aeromonas hydrophila incubated for 16 to 20 hrs; type: functional; details: time 16-20 hrs
Enterococcus faecium [5] = assay: Antibacterial activity against Enterococcus faecium incubated for 16 to 20 hrs; type: functional; details: time 16-20 hrs
Vibrio vulnificus [6] = assay: Bactericidal activity against Vibrio vulnificus V3 incubated overnight; type: functional
Vibrio anguillarum [7] = assay: Bactericidal activity against Listonella anguillarum incubated overnight; type: functional
Streptococcus iniae [8] = assay: Antibacterial activity against Streptococcus iniae incubated for 16 to 20 hrs; type: functional; details: time 16-20 hrs
Vibrio vulnificus [9] = assay: Bactericidal activity against Vibrio vulnificus V2 incubated overnight; type: functional
Vibrio vulnificus [10] = assay: Antibacterial activity against Vibrio vulnificus 204 incubated for 16 to 20 hrs; type: functional; details: time 16-20 hrs
Klebsiella pneumoniae [11] = assay: Bactericidal activity against NDM Klebsiella pneumoniae incubated overnight; type: functional
Aeromonas hydrophila [12] = assay: Bactericidal activity against Aeromonas hydrophila incubated overnight; type: functional
Klebsiella oxytoca [13] = assay: Antibacterial activity against Klebsiella oxytoca incubated for 16 to 20 hrs; type: functional; details: time 16-20 hrs
Streptococcus agalactiae [14] = assay: Antibacterial activity against Streptococcus agalactiae incubated for 16 to 20 hrs; type: functional; details: time 16-20 hrs
[15] = test system: Staphylococcus haemolyticus; assay: Bactericidal activity against Staphylococcus haemolyticus incubated overnight; type: functional
Nakaseomyces glabratus [16] = assay: Fungicidal activity against Candida glabrata incubated overnight; type: functional
Vibrio vulnificus [17] = assay: Bactericidal activity against Vibrio vulnificus V1 incubated overnight; type: functional
Salmonella typhimurium [18] = assay: Bactericidal activity against Salmonella typhimurium incubated overnight; type: functional, Salmonella enterica subsp. enterica serovar Typhimurium; details: Salmonella enterica
Enterococcus faecalis [19] = assay: Bactericidal activity against Enterococcus faecalis incubated overnight; type: functional
Pseudomonas aeruginosa [20] = assay: Bactericidal activity against Pseudomonas aeruginosa incubated overnight; type: functional
Escherichia coli [21] = assay: Bactericidal activity against Escherichia coli incubated overnight; type: functional
Enterococcus faecium [22] = assay: Bactericidal activity against Enterococcus faecium incubated overnight; type: functional
Klebsiella aerogenes [23] = assay: Antibacterial activity against Enterobacter aerogenes incubated for 16 to 20 hrs; type: functional; details: time 16-20 hrs
Vibrio vulnificus [24] = assay: Antibacterial activity against Vibrio vulnificus V2 incubated for 16 to 20 hrs; type: functional; details: time 16-20 hrs
Vibrio alginolyticus [25] = assay: Bactericidal activity against Vibrio alginolyticus incubated overnight; type: functional
Edwardsiella tarda [26] = assay: Antibacterial activity against Edwardsiella tarda incubated for 16 to 20 hrs; type: functional; details: time 16-20 hrs
Streptococcus iniae [27] = assay: Bactericidal activity against Streptococcus iniae incubated overnight; type: functional
Salmonella enterica [28] = assay: Antibacterial activity against Salmonella enterica incubated for 16 to 20 hrs; type: functional; details: time 16-20 hrs
Pseudomonas aeruginosa [29] = assay: Antibacterial activity against Pseudomonas aeruginosa incubated for 16 to 20 hrs; type: functional; details: time 16-20 hrs
Candida tropicalis [30] = assay: Antifungal activity against Candida tropicalis incubated for 16 to 20 hrs; type: functional; details: time 16-20 hrs
Vibrio vulnificus [31] = assay: Antibacterial activity against Vibrio vulnificus V3 incubated for 16 to 20 hrs; type: functional; details: time 16-20 hrs
Nakaseomyces glabratus [32] = assay: Antifungal activity against Candida glabrata incubated for 16 to 20 hrs; type: functional; details: time 16-20 hrs
Candida tropicalis [33] = assay: Fungicidal activity against Candida tropicalis incubated overnight; type: functional
Vibrio alginolyticus [34] = assay: Antibacterial activity against Vibrio alginolyticus incubated for 16 to 20 hrs; type: functional; details: time 16-20 hrs
Edwardsiella tarda [35] = assay: Bactericidal activity against Edwardsiella tarda incubated overnight; type: functional
Klebsiella aerogenes [36] = assay: Bactericidal activity against Enterobacter aerogenes incubated overnight; type: functional
Enterococcus faecalis [37] = assay: Antibacterial activity against Enterococcus faecalis incubated for 16 to 20 hrs; type: functional; details: time 16-20 hrs
Vibrio vulnificus [38] = assay: Bactericidal activity against Vibrio vulnificus 204 incubated overnight; type: functional
Salmonella enterica [39] = assay: Bactericidal activity against Salmonella enterica incubated overnight; type: functional
Vibrio harveyi [40] = assay: Bactericidal activity against Vibrio harveyi incubated overnight; type: functional
Klebsiella pneumoniae [41] = assay: Antibacterial activity against NDM Klebsiella pneumoniae incubated for 16 to 20 hrs; type: functional; details: time 16-20 hrs
Klebsiella oxytoca [42] = assay: Bactericidal activity against Klebsiella oxytoca incubated overnight; type: functional
Vibrio vulnificus [43] = assay: Antibacterial activity against Vibrio vulnificus V1 incubated for 16 to 20 hrs; type: functional; details: time 16-20 hrs
Streptococcus agalactiae [44] = assay: Bactericidal activity against Streptococcus agalactiae incubated overnight; type: functional
Vibrio anguillarum [45] = assay: Antibacterial activity against Listonella anguillarum incubated for 16 to 20 hrs; type: functional; details: time 16-20 hrs
Salmonella typhimurium [46] = assay: Antibacterial activity against Salmonella typhimurium incubated for 16 to 20 hrs; type: functional, Salmonella enterica subsp. enterica serovar Typhimurium; details: Salmonella enterica; time 16-20 hrs
Vibrio vulnificus [47] = assay: Antibacterial activity against Vibrio vulnificus infected in BALB/c mouse wound infection model assessed as survival at 0.048 ug per animal administered 12 hrs post infection and measured for 14 days; type: functional; details: dose 0.048 µg; time 14 day
Acinetobacter baumannii = assay: Antibacterial activity against Acinetobacter baumannii; type: functional
Vibrio vulnificus [48] = assay: Antibacterial activity against Vibrio vulnificus 204 assessed as induction of resistance development by measuring fold increase in MIC measured after 15 passages; type: functional

CC1(C)S[C@@H]2[C@H](NC(=O)[C@H](N)c3ccccc3)C(=O)N2[C@H]1C(=O)O [AMPICILLIN]
MIC [1]: < 1.56 µg/mL | MIC (Escherichia coli [2]): 3.12 µg/mL (≈ 8.94 µM) | MIC (Vibrio harveyi [3]): > 100 µg/mL | MIC (Aeromonas hydrophila [4]): > 100 µg/mL | MIC (Enterococcus faecium [5]): < 1.56 µg/mL | MBC (Vibrio vulnificus [6]): 50 µg/mL (≈ 143 µM) | MBC (Vibrio anguillarum [7]): > 100 µg/mL | MIC (Streptococcus iniae [8]): 6.25 µg/mL (≈ 17.9 µM) | MBC (Vibrio vulnificus [9]): 50 µg/mL (≈ 143 µM) | MIC (Vibrio vulnificus [10]): > 100 µg/mL | MBC (Klebsiella pneumoniae [11]): > 100 µg/mL | MBC (Aeromonas hydrophila [12]): > 100 µg/mL | MIC (Klebsiella oxytoca [13]): > 100 µg/mL | MIC (Streptococcus agalactiae [14]): < 1.56 µg/mL | MBC [15]: < 1.56 µg/mL | MFC (Nakaseomyces glabratus [16]): > 100 µg/mL | MBC (Vibrio vulnificus [17]): 50 µg/mL (≈ 143 µM) | MBC (Salmonella typhimurium [18]): > 100 µg/mL | MBC (Enterococcus faecalis [19]): > 100 µg/mL | MBC (Pseudomonas aeruginosa [20]): > 100 µg/mL | MBC (Escherichia coli [21]): 6.25 µg/mL (≈ 17.9 µM) | MBC (Enterococcus faecium [22]): < 1.56 µg/mL | MIC (Klebsiella aerogenes [23]): 50 µg/mL (≈ 143 µM) | MIC (Vibrio vulnificus [24]): 50 µg/mL (≈ 143 µM) | MBC (Vibrio alginolyticus [25]): > 100 µg/mL | MIC (Edwardsiella tarda [26]): 3.12 µg/mL (≈ 8.94 µM) | MBC (Streptococcus iniae [27]): 6.25 µg/mL (≈ 17.9 µM) | MIC (Salmonella enterica [28]): 3.12 µg/mL (≈ 8.94 µM) | MIC (Pseudomonas aeruginosa [29]): > 100 µg/mL | MIC (Candida tropicalis [30]): > 100 µg/mL | MIC (Vibrio vulnificus [31]): 50 µg/mL (≈ 143 µM) | MIC (Nakaseomyces glabratus [32]): > 100 µg/mL | MFC (Candida tropicalis [33]): > 100 µg/mL | MIC (Vibrio alginolyticus [34]): > 100 µg/mL | MBC (Edwardsiella tarda [35]): 3.12 µg/mL (≈ 8.94 µM) | MBC (Klebsiella aerogenes [36]): 100 µg/mL (≈ 286 µM) | MIC (Enterococcus faecalis [37]): 100 µg/mL (≈ 286 µM) | MBC (Vibrio vulnificus [38]): > 100 µg/mL | MBC (Salmonella enterica [39]): 6.25 µg/mL (≈ 17.9 µM) | MBC (Vibrio harveyi [40]): > 100 µg/mL | MIC (Klebsiella pneumoniae [41]): > 100 µg/mL | MBC (Klebsiella oxytoca [42]): > 100 µg/mL | MIC (Vibrio vulnificus [43]): 50 µg/mL (≈ 143 µM) | MBC (Streptococcus agalactiae [44]): < 1.56 µg/mL | MIC (Vibrio anguillarum [45]): > 100 µg/mL | MIC (Salmonella typhimurium [46]): > 100 µg/mL

C[C@H]1c2cccc(O)c2C(=O)C2=C(O)[C@]3(O)C(=O)C(C(N)=O)=C(O)[C@@H](N(C)C)[C@@H]3[C@@H](O)[C@@H]21.O [DOXYCYCLINE]
MIC [1]: < 1.56 µg/mL | MIC (Escherichia coli [2]): < 1.56 µg/mL | MIC (Vibrio harveyi [3]): < 1.56 µg/mL | MIC (Aeromonas hydrophila [4]): < 1.56 µg/mL | MIC (Enterococcus faecium [5]): < 1.56 µg/mL | MBC (Vibrio vulnificus [6]): < 1.56 µg/mL | MBC (Vibrio anguillarum [7]): 50 µg/mL | MIC (Streptococcus iniae [8]): < 1.56 µg/mL | MBC (Vibrio vulnificus [9]): < 1.56 µg/mL | MIC (Vibrio vulnificus [10]): < 1.56 µg/mL | MBC (Klebsiella pneumoniae [11]): 100 µg/mL | MBC (Aeromonas hydrophila [12]): 12.5 µg/mL | MIC (Klebsiella oxytoca [13]): 3.12 µg/mL | MIC (Streptococcus agalactiae [14]): < 1.56 µg/mL | MBC [15]: < 1.56 µg/mL | MFC (Nakaseomyces glabratus [16]): > 100 µg/mL | MBC (Vibrio vulnificus [17]): < 1.56 µg/mL | MBC (Salmonella typhimurium [18]): 50 µg/mL | MBC (Enterococcus faecalis [19]): 6.25 µg/mL | MBC (Escherichia coli [21]): 50 µg/mL | MBC (Enterococcus faecium [22]): < 1.56 µg/mL | MIC (Klebsiella aerogenes [23]): 1.56 µg/mL | MIC (Vibrio vulnificus [24]): < 1.56 µg/mL | MBC (Vibrio alginolyticus [25]): 12.5 µg/mL | Activity (Vibrio vulnificus [47]): 25% | MIC (Edwardsiella tarda [26]): < 1.56 µg/mL | MBC (Streptococcus iniae [27]): < 1.56 µg/mL | MIC (Salmonella enterica [28]): < 1.56 µg/mL | MIC (Pseudomonas aeruginosa [29]): 6.25 µg/mL | MIC (Candida tropicalis [30]): > 100 µg/mL | MIC (Vibrio vulnificus [31]): < 1.56 µg/mL | MIC (Nakaseomyces glabratus [32]): > 100 µg/mL | MFC (Candida tropicalis [33]): > 100 µg/mL | MIC (Vibrio alginolyticus [34]): < 1.56 µg/mL | MIC (Acinetobacter baumannii): 0.048 µg/mL | MBC (Edwardsiella tarda [35]): < 1.56 µg/mL | MBC (Klebsiella aerogenes [36]): 6.25 µg/mL | MIC (Enterococcus faecalis [37]): 6.25 µg/mL | MBC (Vibrio vulnificus [38]): < 1.56 µg/mL | MBC (Salmonella enterica [39]): 25 µg/mL | MBC (Vibrio harveyi [40]): 12.5 µg/mL | MIC (Klebsiella pneumoniae [41]): 25 µg/mL | MBC (Klebsiella oxytoca [42]): 25 µg/mL | MIC (Vibrio vulnificus [43]): < 1.56 µg/mL | fold change (FC) (Vibrio vulnificus [48]): 128 | MBC (Streptococcus agalactiae [44]): < 1.56 µg/mL | MIC (Vibrio anguillarum [45]): < 1.56 µg/mL | MIC (Salmonella typhimurium [46]): < 1.56 µg/mL
